Data reported in publication PMC4769088, “Antifungal Activity and Action Mechanism of Histatin 5-Halocidin Hybrid Peptides against Candida ssp” (PLoS ONE, 2016).
Where a SMILES comes first, the peptide text is derived from it. Bridges are numbered along the chain shown (N, C = ends). Roman numbers before positions name the chains, in order. Where no end group is shown, it is not given here.

How the values were obtained:
Candida albicans = type: cell-based; details: 1 μg/ml peptide, in 1 hour, colony count assay
Experimental: (§1) The candidacidal activities of the peptides were tested by using standard microdilution plate assays, radial diffusion assays and broth dilution assay slightly modified from the procedure recommended by the National Committee for Clinical Laboratory Standards. For the candidacidal assays, C. albicans cells were grown in YPD medium and washed twice with 10 mM sodium phosphate buffer (NaPB; Na2HPO4, NaH2PO4, pH 7.4). The cells (1 x 10^6) were then mixed with different concentrations of peptides and incubated at 30°C with constant shaking for 60 min. For energy depletion experiments, cells were pre-incubated with 10 mM NaPB containing 5 mM NaN3 at 30°C for 60 min before the addition of peptides. The cell suspensions were diluted in 10 mM NaPB and aliquots of 500 cells were spread onto YPD agar plates then incubated for 24 h at 30°C to visualize the surviving colonies. Cell survival was expressed as a percentage of that for the control, and the loss of viability was calculated as [1 x (number of colonies from peptide-treated cells/number of colonies from control cells)] x 100. Candidacidal assays were performed in triplicate. For the radial diffusion assay, C. albicans cells were grown in YPD medium overnight and washed twice with 10 mM NaPB. Washed yeast-phase C. albicans cells (1 x 10^6 CFU) were trapped in thin underlay gels containing 9 mM sodium phosphate, 1 mM sodium citrate buffer, 1% (wt/vol) agarose (A6013; Sigma), and 0.3 mg of Sabouraud dextrose broth (Difco)/ml. After incubation at 37°C for 3 h, a 10 ml overlay gel of 1% agarose and 6% Sabouraud dextrose broth was poured on the underlay gel and then the plates were incubated overnight at 37°C. The clear-zone diameters were measured to the nearest 0.1 mm and graphed against the peptide concentration. Zone diameters were expressed in units (0.1 mm = 1 unit). For the broth dilution assay, the Candida strains were cultured in LYM broth for 18 h at 30°C. The numbers of yeasts were counted using a hemocytometer. […] The antifungal activities were evaluated after 24 h of incubation at 30°C by the observation of visible turbidity the wells. The MIC values were expressed as intervals (a–b), with a representing the highest tested concentration at which microbes continue to grow, and b representing the lowest concentration at which growth inhibition could be detected.
Fig 4 Killing kinetics of Hst5, P113, di-18Hc, hybrid peptides against Candida albicans. Killing kinetics of peptides against C. albicans was measured by colony count assay. Candida cells were treated with a different concentration of peptides at a determined time. […] Killing percent was calculated with the following equation: Killing % = (number of control cell—number of treated cell)/control cell × 100.

[1] = system: laminarin (β-1,3-glucan polymer), C. albicans cell wall component; assay: Binding/radial diffusion assay with laminarin; type: cell-based; details: peptide final 180 μg/ml, pre-incubated 2 h at 37°C, radial diffusion assay
Experimental: as §1, with “hemocytometer. Stock peptide solutions were prepared to a concentration of 320 μg/ml in distilled water, and were then serially diluted twofold, to 5 μg/ml. 100 μl aliquots of the diluted culture media containing candida cells (1 x 10^3) were dispensed into the wells of 96-well polypropylene microtiter plates (Costar 3879, Corning, NY), to which peptide solution (11 μl) was then added.” for “hemocytometer.”
Binding of hybrid peptides to the surface of C. albicans cells was examined by assessing the inhibitory effect of fungal cell wall components on the antimicrobial activity of the hybrid peptides. 20 μl of a pre-determined concentration of the peptides was added to 80 μl of each polysaccharide (0.07–40 mg/ml in 10 mM NaPB) including laminarin (β-1,3-glucan polymer; Sigma), pustulan (β-1,6-glucan polymer; Calbiochem) or mannan (mannose polymer; Sigma) and incubated for 2 h at 37°C. The inhibitory effects of the polysaccharides on the antimicrobial activity of the peptides were assessed by radial diffusion assay as described above. […]

[2] = CD spectra, secondary structure analysis; type: physicochemical; details: 200 μg/ml peptide
Experimental: Circular dichroism (CD) spectra of the six peptides (Hst5, P113, HHP1, di-PH2, di-WP2 and di-18Hc) were measured with a J-715 spectropolarimeter (Jasco, Tokyo, Japan). Two hundred micrograms of each peptide was resuspended in 1 ml of 10 mM NaPB (pH 7.0) (i) without other additives, (ii) with 10% laminarin (LAM) or (iii) with 50% trifluoroethanol (TFE) (a known helix-inducing solvent). The spectra were measured at room temperature in a 1-mm-path-length quartz cell. The scanning speed was 10 nm/min (180 to 260 nm), and each spectrum was the average of five scans.
Fig 3 CD spectra of Hst5, P113, di-18Hc and hybrid peptides. This study was performed with one concentration (200 μg/ml) of each peptide in various buffers: 10 mM sodium phosphate buffer (Red line), 50% TFE in phosphate buffer (green line) and 20 mg of laminarin in phosphate buffer.

[3] = solvent 10mM NaPB (pH 7.0), room temperature, average of five scans

CC(C)C[C@H](NC(=O)[C@@H](N)Cc1c[nH]c2ccccc12)C(=O)N[C@@H](CC(N)=O)C(=O)N[C@@H](C)C(=O)N[C@@H](CCCCN)C(=O)N[C@@H](CCCNC(=N)N)C(=O)N[C@@H](Cc1c[nH]cn1)C(=O)N[C@@H](Cc1c[nH]cn1)C(=O)NCC(=O)N[C@@H](Cc1ccc(O)cc1)C(=O)N[C@@H](CCCCN)C(=O)N[C@@H](CSSC[C@H](NC(=O)[C@H](CCCCN)NC(=O)[C@H](Cc1ccc(O)cc1)NC(=O)CNC(=O)[C@H](Cc1c[nH]cn1)NC(=O)[C@H](Cc1c[nH]cn1)NC(=O)[C@H](CCCNC(=N)N)NC(=O)[C@H](CCCCN)NC(=O)[C@H](C)NC(=O)[C@H](CC(N)=O)NC(=O)[C@H](CC(C)C)NC(=O)[C@@H](N)Cc1c[nH]c2ccccc12)C(=O)N[C@@H](CCCCN)C(=O)N[C@@H](Cc1ccccc1)C(=O)N[C@@H](Cc1c[nH]cn1)C(N)=O)C(=O)N[C@@H](CCCCN)C(=O)N[C@@H](Cc1ccccc1)C(=O)N[C@@H](Cc1c[nH]cn1)C(N)=O [di-WP2] (I: H-WLNAKRHHGYKCKFH-NH2 / II: H-WLNAKRHHGYKCKFH-NH2; disulfide I:12-II:12 (inferred); N-terminus assumed)
reduction of cell viability (Candida albicans): 99% | laminarin concentration at which antimicrobial activity was drastically decreased by pre-incubation [1]: 1.25 mg/mL | Secondary structure (%) Beta ([2]; solvent 10mM NaPB (pH 7.0)): 22.0% | Secondary structure (%) Random ([2]; solvent 10mM NaPB (pH 7.0)): 63.2% | Secondary structure (%) Turn ([2]; solvent 10mM NaPB (pH 7.0)): 14.8% | Secondary structure (%) Helix [2, 3]: 0.0% | Secondary structure (%) Beta ([2]; solvent 50% TFE in 10 mM NaPB): 25.7% | Secondary structure (%) Helix ([2]; solvent 50% TFE in 10 mM NaPB): 7.8% | Secondary structure (%) Random ([2]; solvent 50% TFE in 10 mM NaPB): 52.5% | Secondary structure (%) Turn ([2]; solvent 50% TFE in 10 mM NaPB): 13.9%

CC(C)C[C@H](NC(=O)CNC(=O)[C@H](Cc1c[nH]cn1)NC(=O)[C@H](Cc1c[nH]cn1)NC(=O)[C@H](CCCNC(=N)N)NC(=O)[C@H](CCCCN)NC(=O)[C@H](C)N)C(=O)N[C@@H](CC(N)=O)C(=O)N[C@@H](CSSC[C@H](NC(=O)[C@H](CC(N)=O)NC(=O)[C@H](CC(C)C)NC(=O)CNC(=O)[C@H](Cc1c[nH]cn1)NC(=O)[C@H](Cc1c[nH]cn1)NC(=O)[C@H](CCCNC(=N)N)NC(=O)[C@H](CCCCN)NC(=O)[C@H](C)N)C(=O)N[C@@H](C)C(=O)N[C@@H](CCCCN)C(=O)N[C@@H](Cc1ccccc1)C(=O)N[C@@H](Cc1c[nH]cn1)C(N)=O)C(=O)N[C@@H](C)C(=O)N[C@@H](CCCCN)C(=O)N[C@@H](Cc1ccccc1)C(=O)N[C@@H](Cc1c[nH]cn1)C(N)=O [di-PH2] (I: H-AKRHHGLNCAKFH-NH2 / II: H-AKRHHGLNCAKFH-NH2; disulfide I:9-II:9 (inferred); N-terminus assumed)
reduction of cell viability (Candida albicans): 99% | laminarin concentration at which antimicrobial activity was drastically decreased by pre-incubation [1]: 5 mg/mL | Secondary structure (%) Beta ([2]; solvent 10mM NaPB (pH 7.0)): 29.2% | Secondary structure (%) Random ([2]; solvent 10mM NaPB (pH 7.0)): 70.8% | Secondary structure (%) Turn ([2]; solvent 10mM NaPB (pH 7.0)): 0.0% | Secondary structure (%) Helix [2, 3]: 0.0% | Secondary structure (%) Beta ([2]; solvent 50% TFE in 10 mM NaPB): 32.9% | Secondary structure (%) Helix ([2]; solvent 50% TFE in 10 mM NaPB): 10.1% | Secondary structure (%) Random ([2]; solvent 50% TFE in 10 mM NaPB): 51.8% | Secondary structure (%) Turn ([2]; solvent 50% TFE in 10 mM NaPB): 5.2%

AKRHHGYKRKFH-NH2 [P113]
laminarin concentration at which antimicrobial activity was drastically decreased by pre-incubation [1]: 5 mg/mL | Secondary structure (%) Beta ([2]; solvent 10mM NaPB (pH 7.0)): 0.0% | Secondary structure (%) Random ([2]; solvent 10mM NaPB (pH 7.0)): 95.3% | Secondary structure (%) Turn ([2]; solvent 10mM NaPB (pH 7.0)): 4.7% | Secondary structure (%) Helix [2, 3]: 0.0% | Secondary structure (%) Beta ([2]; solvent 50% TFE in 10 mM NaPB): 34.8% | Secondary structure (%) Helix ([2]; solvent 50% TFE in 10 mM NaPB): 4.4% | Secondary structure (%) Random ([2]; solvent 50% TFE in 10 mM NaPB): 60.8% | Secondary structure (%) Turn ([2]; solvent 50% TFE in 10 mM NaPB): 0.0%

C[C@H](NC(=O)[C@H](Cc1c[nH]cn1)NC(=O)[C@H](CO)NC(=O)[C@@H](N)CC(=O)O)C(=O)N[C@@H](CCCCN)C(=O)N[C@@H](CCCNC(=N)N)C(=O)N[C@@H](Cc1c[nH]cn1)C(=O)N[C@@H](Cc1c[nH]cn1)C(=O)NCC(=O)N[C@@H](Cc1ccc(O)cc1)C(=O)N[C@@H](CCCCN)C(=O)N[C@@H](CCCNC(=N)N)C(=O)N[C@@H](CCCCN)C(=O)N[C@@H](Cc1ccccc1)C(=O)N[C@@H](Cc1c[nH]cn1)C(=O)N[C@@H](CCC(=O)O)C(=O)N[C@@H](CCCCN)C(=O)N[C@@H](Cc1c[nH]cn1)C(=O)N[C@@H](Cc1c[nH]cn1)C(=O)N[C@@H](CO)C(=O)N[C@@H](Cc1c[nH]cn1)C(=O)N[C@@H](CCCNC(=N)N)C(=O)NCC(=O)N[C@@H](Cc1ccc(O)cc1)C(=O)O [Hst 5, Histatin 5]
laminarin concentration at which antimicrobial activity was drastically decreased by pre-incubation [1]: 2.5 mg/mL | Secondary structure (%) Beta ([2]; solvent 10mM NaPB (pH 7.0)): 19.3% | Secondary structure (%) Random ([2]; solvent 10mM NaPB (pH 7.0)): 74.5% | Secondary structure (%) Turn ([2]; solvent 10mM NaPB (pH 7.0)): 6.2% | Secondary structure (%) Helix [2, 3]: 0% | Secondary structure (%) Beta ([2]; solvent 50% TFE in 10 mM NaPB): 7.3% | Secondary structure (%) Helix ([2]; solvent 50% TFE in 10 mM NaPB): 76.2% | Secondary structure (%) Random ([2]; solvent 50% TFE in 10 mM NaPB): 0.0% | Secondary structure (%) Turn ([2]; solvent 50% TFE in 10 mM NaPB): 16.4%
